Drawing on a melting point compilation (Tetko et al.; mined from patent text by program, amines drawn as free bases though some values may be those of a salt), this text covers melting point for 88 molecules.

A value given as a limit tells only on which side of the number the result lay.

On to `O=C1c2ccccc2C(=O)N1CCCCc1cc(-c2ccccn2)nc(-c2ccccn2)c1`, for which the melting point (commonly the temperature, or range, at which the solid turns liquid) is 128 °C. Then `CCc1nn2c(-c3ccc(Cl)cc3Cl)nc(C)nc2c1C(CC)CC`, with 91 to 93 °C. Then `COc1ccccc1NC(=O)c1ccccc1SSc1ccccc1C(=O)Nc1ccccc1OC`, with 154 to 155 °C. `CC(NC(=O)c1cc(Cl)cc(Br)c1N)C1CC1` (stereo not drawn) yielded a melting point of 177 °C. Then `COC(=O)c1ccc(Cl)c(C2(O)C(=O)N(Cc3ccc(OC)cc3OC)c3ccc(Cl)cc32)c1` (stereo not drawn), with 56 °C; and `O=C(/C=C/c1ccc(O)cc1)CC(=O)/C=C/c1ccc(O)cc1Cl`, with 131 to 138 °C; and `COc1ccc(-c2cnc3[nH]cc(C(=O)NC4CCN(C)C4)c3n2)cc1OC` (stereo not drawn), with 193 to 194 °C.

Consider `CCCCn1c(NCCC)nc2ccc(Br)cc2c1=O`, for which the melting point was in the range of 71 to 73 °C.

Molecule `CC1(C)C(=O)Nc2cccc(O)c21` came in with a melting point of 224 to 225 °C. Then `O=C(O)CCCC(=O)CCCc1ccccc1CCCC(=O)O`, with 87 °C; and `CC(=S)NC[C@H]1CN(c2ccc(N3CCC(n4ccnn4)CC3)c(F)c2)C(=O)O1`, with 171 to 172 °C. Molecule `O=c1c2cc(Cl)ccc2ccc2ncccc12` showed a melting point of 140 to 142 °C. Then `CCc1ccc(Nc2c(-c3nnc(NCCNC)o3)ccc(F)c2F)c(F)c1`, with 154 to 157 °C; and `O=C(Oc1ccccc1)N1Cc2ccccc2C(Oc2ccc(C(F)(F)F)cc2)C1` (stereo not drawn), with 72 °C. Molecule `O=C(Cn1c(-c2ccc(Br)cc2)nc2cccnc21)Nc1ccccn1` displayed a melting point of 192 to 195 °C. `CCCCCCCCOc1ccc(CC(=O)[C@H]2CC[C@H](CCCCC)CC2)c(F)c1F` gave a melting point of 59 °C.

`Cc1nc[nH]c1CN1CCC(Nc2nc3ccccc3n2Cc2ccco2)CC1` yielded a melting point of 242 °C.

`CC(=O)OC1CSC(Oc2cncc(-c3ccc(OC(C)C)cc3)c2)C(OC(C)=O)C1OC(C)=O` (stereo not drawn) returned a melting point of 135 °C. The result for `CSc1nc2cc(C(F)(F)F)ccc2n1N` reads 170 to 173 °C; that for `Cn1cnc(S(=O)(=O)N2CCn3c(c(C(N)=O)c(Cl)c3-c3ccccc3)C2)c1`, 260 to 263 °C; that for `CCn1c(N)c(C(=O)NC)c(=O)c2ccc(-c3ccc(NS(=O)(=O)c4cccc(Cl)c4Cl)cc3)nc21`, 210 °C. Then `CC(C)c1cccc(C(C)C)c1N1C(=O)C(c2ccccc2)=C(c2ccccc2)C1=O`, with 233 to 234 °C; and `CS(=O)c1nnc(-c2ccc3occ(-c4cc(F)ccc4F)c3c2)o1` (stereo not drawn), with 151 to 152 °C. Then `N[C@H]1CCN(C(=O)c2cc(C(F)(F)F)cc(C(F)(F)F)c2)[C@H](Cc2ccc(Cl)cc2)C1`, with 79 to 81 °C. Regarding `COCCNS(=O)(=O)c1ccc(Nc2nccc(-c3sc(-c4cccnc4)nc3C)n2)cc1`, the melting point lay in the range of 252 to 254 °C.

`COc1cc(N)c2nccc(C)c2c1OCCCCCCCCCc1ccccc1`: the melting point was in the range of 32 to 32.5 °C.

Turning to `COC(=O)CCCc1cc2cc(Cl)ccc2n1S(=O)(=O)c1cccc(Cl)c1Cl`, the melting point was in the range of 115 to 117 °C. Then `Cc1oc(COc2ccccc2/C=C/CO)nc1-c1ccccc1`, with 128 to 129 °C; and `COC(=O)C1C(=O)Nc2ccc(C(F)(F)F)cc2CC1c1ccccc1Cl` (stereo not drawn), with 183 to 184 °C. The result for `COC(=O)Cc1ccccc1Cc1ccccc1C(=O)O` reads 121 to 123 °C. As to `Cc1ccc2nc(-c3ccc4nc(N)sc4c3)sc2c1`, the melting point fell in the range of 250 to 251 °C.

For the molecule `COC(=O)CC(C(=O)c1ccc(SC)cc1)c1ccccc1` (stereo not drawn), the melting point lay within 82.4 to 83 °C. `CSc1nc(O)nc(-c2ccncc2)n1` yielded a melting point of 270 to 272 °C. The result for `O=[N+]([O-])c1ccccc1C(Cl)Cl` reads 25.6 to 26.7 °C; that for `CCCOc1cc2ccccc2c2c(=O)c(-c3ccc(OC)cc3)c(C)[nH]c12`, 204 to 206 °C.

As for `CC1(C(=O)c2c[nH]c3ncc(-c4cccc(N5CCN(S(C)(=O)=O)CC5)c4)nc23)CCCCC1`, the melting point was in the range of 230 to 231 °C. The result for `CCOc1cc(C2CC=CN(C(=O)c3ccc(NC(=O)OCCCN(C)C)cc3)N2)ccc1OC` (stereo not drawn) reads 193 °C; that for `O=C(COc1ccccc1Cl)NCCO[N+](=O)[O-]`, 57 to 58 °C.

For `CC(=O)SCCC(=O)N1N=C(c2ccc(C(F)(F)F)cc2)SC1C(=O)OCc1ccccc1` (stereo not drawn), the melting point lay within 120 to 121 °C. The result for `O=C(CCl)NC(NC(=O)c1ccccc1)C(Cl)(Cl)Cl` (stereo not drawn) reads 211 to 213 °C.

As for `COc1cc2ncnc(N3CCC(C(=O)CN4C=CC(C)=NS4(=O)=O)CC3)c2cc1OC`, the melting point is 172 to 175 °C.

Turning to `COc1ccc(C(=O)Nc2ccccc2)cc1Nc1ccc(F)cc1`, the melting point is 178 to 180 °C. Regarding `C#CCn1nnc2cc3c(=O)n(C(C)Cn4ncnn4)nnc3cc2c1=O` (stereo not drawn), the melting point is 209 to 211 °C. In turn, `Nc1cccc(C#Cc2ccc(OC3CN4CCC3CC4)nn2)c1` (stereo not drawn) yielded a melting point of 152 to 158 °C. Then `Cc1cn2cccc(OCc3c(Cl)ccc(S(=O)(=O)N4CCC[C@H]4C(=O)NCCCNC(=O)c4ccc(C#N)cc4)c3Cl)c2n1`, with 100 to 102 °C; and `O=C(Nc1ccccc1)ONC1=Nc2ccc([N+](=O)[O-])cc2C(c2ccccc2Cl)=NC1`, with 201 to 203 °C; and `COc1cc2c(cc1OC)C(O)(CN)CCC2` (stereo not drawn), with 107 to 109 °C. The molecule `CCCCCCCCCCCCCC/C=C\CN1C(=O)c2ccccc2C1=O` showed a melting point of 56 to 60 °C.

As for `CCC1(CC)OC(=O)N(c2cccc(Cl)c2)c2ccccc21`, the melting point was in the range of 150 to 151 °C.

Take `Clc1ccc(C2(Cn3ccnc3)OCC(COc3ccc(N4CCN(c5ccc(-n6cnnn6)cc5)CC4)cc3)O2)c(Cl)c1` (stereo not drawn): the melting point is 201 °C. In turn, `Cc1cn(-c2c(F)cc3c(=O)c(C(=O)O)cn(C4CC4)c3c2F)cn1` displayed a melting point of 215 to 223 °C.

`CCn1cc(C(N)=O)c(=O)c2ccc(-c3ccncc3)cc21` had a melting point of over 300 °C.

In turn, `CCCCN(Cc1ccc(-c2ccccc2-c2nnn[nH]2)cc1)c1ncccc1C(=O)O` registered a melting point of 203 to 205 °C. The result for `O=CN(c1cccc(C(F)(F)F)c1)c1cccc(C(F)(F)F)c1` reads 63 to 65 °C. The result for `COc1ccc(C=C2N=C(c3ccc([N+](=O)[O-])cc3)OC2=O)cc1OC` reads 265 to 267 °C; that for `Cc1ccc2[nH]c3c(c2c1)CCNC3(C(=O)OC(C)(C)C)C1(NC(=O)OCc2ccccc2)CCC1` (stereo not drawn), 219 to 220 °C; that for `CC(C)=CCCC(C)=CCCC(C)=CCCC1(C)CCc2c(C)c(O)c(C)c(C)c2O1` (stereo not drawn), 25 to 28 °C.

The molecule `COc1ccccc1CC(=O)N1C[C@@H]2SCCC(c3ccccc3)(c3ccccc3)[C@@H]2C1` (racemic) registered a melting point of 172 °C.

`Cc1nc2cnccc2n1-c1ccc2c(c1)CC(C(=O)O)C2` (stereo not drawn) showed a melting point of 264 to 267 °C. Then `Cc1ccc2ccccc2c1Cn1ccnc1`, with 98 to 98.5 °C; and `CC(C)Oc1ccc(F)c(N2C(=O)C3=C(CCCC3)C2=O)c1`, with 62.8 °C; and `COc1ccc2cc(C(=O)CNC(=O)c3cn(C)c4ccccc34)ccc2c1`, with 177 to 180 °C. The result for `COc1cccc2c1CCCC2N1CCN(C)CC1` (stereo not drawn) reads 69 to 71 °C; that for `CN(C)CC1Cn2cc(C(=O)NCc3ccc(Cl)cc3)c(=O)c3cc(CN4CCOCC4)cc(c32)O1` (stereo not drawn), 168 to 170 °C; that for `C[C@@]1(F)[C@H](OC(=O)c2ccccc2)[C@@H](COC(=O)c2ccccc2)O[C@H]1n1cnc2c(Cl)nc(N)nc21`, 160 to 162 °C. Then `CC(C)(C)N1C(=O)C2Cc3[nH]cnc3CN2C1=O` (stereo not drawn), with 156 to 158 °C. Consider `CC(=O)Nc1ccc(C(=O)O)c(O)c1`, for which the melting point lay in the range of 221 to 223 °C. `CCCCCCCCCC[C@H](NP(=O)(c1ccccc1)c1ccccc1)c1ccccc1` yielded a melting point of 95 to 96 °C. For the molecule `O=C(O)c1cccc(C(=O)O)c1Nc1ccc(I)cc1`, the melting point lay in the range of 241 to 243 °C. The result for `CCOC(=O)Nn1cccc1C(=O)c1ccccc1Cl` reads 90 to 92 °C; that for `CCOc1ccc2nc(CO)n(C)c2n1`, 161 °C. The result for `N#CC1(c2ccc(F)cc2)C2CC3CC(C2)CC1C3` (stereo not drawn) reads 81 to 82 °C; that for `COC(=O)C1CC(O)CN1C(=O)c1cc(OC)c(OC)c(OC)c1` (stereo not drawn), 126 °C; that for `CN1CCC(OC2c3ccccc3CCn3cc(-c4ccc(NC(=O)C(C)(C)C)cc4)nc32)CC1` (stereo not drawn), 120 °C. For `O=C(Nc1ccc(-n2nc(C(F)(F)F)cc2C(F)(F)F)cc1)c1c(F)cc(Cl)cc1Cl`, the melting point is 185 to 188 °C. Consider `CCCCCCCCCCCCCCOc1ccc(C(=O)O)s1`, for which the melting point was 95 to 96 °C.

`CC(=S)OC(c1ccccc1)C1(C)OCCO1` (stereo not drawn) yielded a melting point of 49 to 52 °C. `CCCCNC(=O)CP(=O)(O)O` showed a melting point of 115 to 125 °C. Then `COC(=O)c1c[nH]c(CCC2CNc3nc(NC(=O)C(C)(C)C)nc(O)c3C2)c1` (stereo not drawn), with over 260 °C; and `NC(=O)c1cc2cc(Cl)ccc2o1`, with 200 to 202 °C. The result for `CC(=O)NCC1CN(c2cc(F)c(-c3cccnc3)c(F)c2)C(=O)O1` (stereo not drawn) reads 218 to 219 °C. Regarding `C=CCOC(=O)c1c(-c2ccncc2)[nH]c(-c2ccncc2)c1C`, the melting point was found to be 224 °C. The molecule `COc1ccc(C2=NN(C3CCNCC3)C(=O)C(C)(C)C2)cc1OC` returned a melting point of 126 to 128 °C. Then `c1ccc(COc2ccc(C3CO3)nc2)cc1` (stereo not drawn), with 45 to 47.5 °C; and `Cc1c(-c2ccccc2)oc2c(C(=O)NCCCO)cccc2c1=O`, with 191 to 193 °C; and `CCC(=O)Nc1csc(Br)n1`, with 122 to 125 °C. The result for `CC(=O)N(Cc1ccc(C(=O)O)cc1)c1ccc2c(c1)C(C)(C)CCC2(C)C` reads 219 to 223 °C; that for `COc1cc2c3c(n(C)c(=O)c2cc1OC)-c1cc2c(cc1C3=CCCCI)OCO2`, 173 to 174 °C.
